Like-named read-outs stand apart in the source and are kept apart here.
What was measured:
[1] = tested on: Sweet corn (Zea mays S.); experiment: Herbicidal spectrum, foliar spraying; format: in vivo; conditions: foliar spray 5 mg/mL
Excerpt: (§1) All weed, sedge and crop seedlings were planted in 8 cm×8 cm×7.2 cm or 10 cm×10 cm×9 cm plastic pots. Seedlings including pigweed (Amaranthus retroflexus, L.), barnyard grass (Echinochloa crusgalli L.), bindweed (Convolvulus arvensis L.), crabgrass (Digitaria sanguinalis L.), dandelion (Taraxacum officinale F.), lambsquarters (Chenopodium album L.), bluegrass (Poa annua L.), wild mustard (Brassica kaber L.), black nightshade (Solanum nigrum L.), curly dock (Rumex crispus L.), horseweed (Conyza Canadensis L.), sweet corn (Zea may S.) and wheat PR 1404 (Triticum aestivum L.) were planted in Super Soil potting soil. Seedlings including rice M-104 (Oryza saliva L.), sedge (Cyperus difformis L.) and sprangletop (Leptochloa fascicularis Lam) were planted in mud which was collected from rice field (Woodland, Calif., USA). When treated, all seedlings were 15 days old except for rice (10 days), wheat (20 days), corn (20 days) sprangletop (20 days old), sedge (20 days old) and horse weed (70 days old).
(§2) Herbicidal activity of the active compound and synthesized compounds was evaluated by foliar spraying. Spraying carrier solution contained 2% ethanol, 0.2% glycosperse O-20 and 0.1% sodium lauryl sulfate. Freshly made solution with the evaluated compound at a concentration of 5 mg/mL was used. In the spectrum study, spraying volume was dependent on the foliar surface area, ranging from approximately 1 to 3 mL/pot plants. One or two pots of plants were treated for each. Number of pots was dependent on both foliar area and availability. In the structure-activity relationship study, one pot of barnyard grass was used and the spraying volume of each compound was 3 mL of 5 mg/mL.
(§3) The optimal concentration of sarmentine was 5 mg/mL for excellent control of barnyard grass (Figure 2). Therefore, such a concentration was subjected to herbicidal spectrum study. Due to the hydrophobic property of sarmentine, a carrier solution containing 0.2% glycosperse O-20, 2% ethanol and 0.1% sodium lauryl sulfate was used. Although this solution contains a high concentration of surfactants, sarmentine can stay suspended in this solution no more than 15 min. Therefore, sarmentine was made freshly just before spraying.

[2] = tested on: Curly dock (Rumex crispus L.); experiment: Herbicidal spectrum, foliar spraying; format: in vivo; conditions: foliar spray 5 mg/mL
Excerpt: as §1, §2, §3

[3] = tested on: Wild mustard (Brassica kaber L.); experiment: Herbicidal spectrum, foliar spraying; format: in vivo; conditions: foliar spray 5 mg/mL
Excerpt: as §1, §2, §3

[4] = tested on: Sprangletop (Leptochloa fascicularis Lam.); experiment: Herbicidal spectrum, foliar spraying; format: in vivo; conditions: foliar spray 5 mg/mL
Excerpt: as §1, §2, §3

[5] = tested on: Rice (M 104) (Oryza saliva L); experiment: Herbicidal spectrum, foliar spraying; format: in vivo; conditions: foliar spray 5 mg/mL
Excerpt: as §1, §2, §3

[6] = tested on: Sedge (Cyperus difformis L.); experiment: Herbicidal spectrum, foliar spraying; format: in vivo; conditions: foliar spray 5 mg/mL
Excerpt: as §1, §2, §3

[7] = tested on: Horse weed (Conyza Canadensis L.); experiment: Herbicidal spectrum, foliar spraying; format: in vivo; conditions: foliar spray 5 mg/mL
Excerpt: as §1, §2, §3

[8] = tested on: Lambsquarters (Chenopodium album L.); experiment: Herbicidal spectrum, foliar spraying; format: in vivo; conditions: foliar spray 5 mg/mL
Excerpt: as §1, §2, §3

[9] = tested on: Pigweed (Amaranthus retroflexus, L.); experiment: Herbicidal spectrum, foliar spraying; format: in vivo; conditions: foliar spray 5 mg/mL
Excerpt: as §1, §2, §3

[10] = tested on: Dandelion (Taraxacum officinale F.); experiment: Herbicidal spectrum, foliar spraying; format: in vivo; conditions: foliar spray 5 mg/mL
Excerpt: as §1, §2, §3

[11] = tested on: Bluegrass (Poa annua L.); experiment: Herbicidal spectrum, foliar spraying; format: in vivo; conditions: foliar spray 5 mg/mL
Excerpt: as §1, §2, §3

[12] = tested on: Black nightshade (Solanum nigrum L.); experiment: Herbicidal spectrum, foliar spraying; format: in vivo; conditions: foliar spray 5 mg/mL
Excerpt: as §1, §2, §3

[13] = tested on: Bindweed (Convolvulus arvensis, L.); experiment: Herbicidal spectrum, foliar spraying; format: in vivo; conditions: foliar spray 5 mg/mL
Excerpt: as §1, §2, §3

[14] = tested on: Wheat (PR 1404) (Triticum aestivum L.); experiment: Herbicidal spectrum, foliar spraying; format: in vivo; conditions: foliar spray 5 mg/mL
Excerpt: as §1, §2, §3

[15] = tested on: Crabgrass (Digitaria sanguinalis L.); experiment: Herbicidal spectrum, foliar spraying; format: in vivo; conditions: foliar spray 5 mg/mL
Excerpt: as §1, §2, §3

[16] = tested on: Barnyard grass (Echinochloa crusgalli L.); experiment: Herbicidal activity, foliar spraying (spectrum and SAR study); format: in vivo; conditions: for pest or weed control at 5000 µg/mL: Echinochloa crus-galli, 72 h, read-out: Efficacy of phytotoxic activity
Excerpt: as §1, §2, §3

[17] = Suspension of sarmentine in spraying carrier solution; format: physicochemical; conditions: 0.2% glycosperse O-20, 2% ethanol and 0.1% sodium lauryl sulfate
Method: as §3

[18] = tested on: plants; experiment: Symptom of phytotoxic activity after spraying; format: in vivo; conditions: sarmentine solution
Method: as §2
Sarmentine is a contact phytotoxic compound. When plants were treated with sarmentine solution, slightly black tiny spots would first show on the leaves and then became bigger and bigger until they covered the whole leaves, especially obvious on the barnyard grass. […] This symptom was observed very similarly to that of middle-chain fatty acids such as decanoic acid (21, Table 4) and 2E-decenoic acid (22, Table 3) during the SAR study.

[19] = 20 days old, 1 to 3 mL/pot, at least 3 days after spraying
[20] = 15 days old, 1 to 3 mL/pot, at least 3 days after spraying
[21] = SAR study, one pot of barnyard grass, foliar spray 3 mL of 5 mg/mL, at least 3 days after spraying

Structure (SMILES): CCCCC/C=C/C=C/C(=O)N1CCCC1 [sarmentine, N-(2E,4E-Decadienoyl) pyrrolidine]
- Efficacy of phytotoxic activity [1, 19]: VI (VI (80-100%))
- Phytotoxic activity (in words) [1]: highly phytotoxic activity
- Efficacy of phytotoxic activity [2, 20]: VI (VI (80-100%))
- Phytotoxic activity (in words) [2]: highly phytotoxic activity
- Efficacy of phytotoxic activity [3, 20]: VI (VI (80-100%))
- Phytotoxic activity (in words) [3]: highly phytotoxic activity
- Efficacy of phytotoxic activity [4, 19]: VI (VI (80-100%))
- Phytotoxic activity (in words) [4]: highly phytotoxic activity
- Efficacy of phytotoxic activity ([5]; rice M-104, 10 days old, 1 to 3 mL/pot, at least 3 days after spraying): I
- Phytotoxic activity (in words) ([5]; rice plants, after 10 days): No visible phytotoxic activity
- Efficacy of phytotoxic activity [6, 19]: III (III (20-40%))
- Phytotoxic activity (in words) [6]: Slightly phytotoxic activity
- Efficacy of phytotoxic activity ([7]; horse weed, 70 days old, 1 to 3 mL/pot, at least 3 days after spraying): II (II (<20%))
- Phytotoxic activity (in words) ([7]; horseweed (70-day-old)): Slightly phytotoxic activity
- Efficacy of phytotoxic activity [8, 20]: VI (VI (80-100%))
- Phytotoxic activity (in words) [8]: highly phytotoxic activity
- Efficacy of phytotoxic activity [9, 20]: VI (VI (80-100%))
- Phytotoxic activity (in words) [9]: highly phytotoxic activity
- Efficacy of phytotoxic activity [10, 20]: VI (VI (80-100%))
- Phytotoxic activity (in words) [10]: highly phytotoxic activity
- Phytotoxic activity (in words) ([11]; blue grass): highly phytotoxic activity
- Efficacy of phytotoxic activity ([11]; bluegrass, 15 days old, 1 to 3 mL/pot, at least 3 days after spraying): VI (VI (80-100%))
- Efficacy of phytotoxic activity [12, 20]: VI (VI (80-100%))
- Phytotoxic activity (in words) [12]: highly phytotoxic activity
- Efficacy of phytotoxic activity [13, 20]: VI (VI (80-100%))
- Phytotoxic activity (in words) [13]: highly phytotoxic activity
- Efficacy of phytotoxic activity ([14]; wheat PR 1404, 20 days old, 1 to 3 mL/pot, at least 3 days after spraying): VI (VI (80-100%))
- Phytotoxic activity (in words) ([14]; wheat): highly phytotoxic activity
- Efficacy of phytotoxic activity [15, 20]: VI (VI (80-100%))
- Phytotoxic activity (in words) [15]: highly phytotoxic activity
- pest or weed control at 5000 µg/mL ([16]; spectrum study, barnyard grass, 15 days old, foliar spray 5 mg/mL, 1 to 3 mL/pot, at least 3 days after spraying): 80 to 100%
- Efficacy of phytotoxic activity [16, 21]: VI (VI (80-100%))
- Optimal concentration for excellent control of barnyard grass ([16]; foliar spraying, Figure 2): 5 mg/mL
- Phytotoxic activity (in words) ([16]; spectrum study, barnyard grass, foliar spray 5 mg/mL): highly phytotoxic activity
- Time sarmentine can stay suspended in carrier solution [17]: no more than 15 min
- Time after spraying within which predominant phytotoxic activity happened [18]: ≤ 48 h

Structure (SMILES): CCCCCCCCCC(=O)O [No 21, decanoic acid]
- pest or weed control at 5000 µg/mL [16, 21]: 80 to 100%
- Phytotoxic activity relative to sarmentine / toxicity to barnyard grass (in words) ([16]; SAR study, barnyard grass, foliar spray 3 mL of 5 mg/mL): very active

Reference: US8957000B2, “Use of sarmentine and its analogs for controlling plant pests” (Marrone Bio Innovations, Inc., priority 2009, dated 2015)
